Data published in patent publication US7816353B2 (Exelixis, Inc., priority 2003, dated 2010).

Target: T1, p70S6K (Homo sapiens, UniProt P23443, T412E)
T1 construct: human p70S6 kinase domain residues 1-421, containing a T412E mutation; made in house
Test: p70S6 Kinase Assay (Luciferase-Coupled Chemiluminescent Kinase assay, LCCA)
Type: biochemical
Conditions: human p70S6 kinase domain residues 1-421, T412E; 5 μM ATP; read-out: p70S6K IC50
How it was run: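 Luciferase-coupled chemiluminescence measured percent ATP remaining after the 2 h kinase reaction at ambient temperature, with ATP near the kinase's KM. Ten inhibitor concentrations were tested. IC50 was obtained from a Hill-equation fit.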

T1 sequence (P23443 1-421 T412E): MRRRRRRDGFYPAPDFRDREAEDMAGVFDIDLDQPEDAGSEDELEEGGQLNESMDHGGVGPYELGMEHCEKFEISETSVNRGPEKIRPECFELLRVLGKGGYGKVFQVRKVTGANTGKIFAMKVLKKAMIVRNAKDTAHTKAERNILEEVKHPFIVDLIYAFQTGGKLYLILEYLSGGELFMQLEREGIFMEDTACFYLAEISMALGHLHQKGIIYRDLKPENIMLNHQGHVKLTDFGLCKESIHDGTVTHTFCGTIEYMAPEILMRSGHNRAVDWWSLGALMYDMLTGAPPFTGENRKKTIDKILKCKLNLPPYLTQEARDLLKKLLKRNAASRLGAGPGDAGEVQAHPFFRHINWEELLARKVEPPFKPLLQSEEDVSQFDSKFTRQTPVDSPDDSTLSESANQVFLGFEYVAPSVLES

Row | IC50 | Structure (SMILES)
1 | > 2000 nM | CCOc1nc(N)nc(N[C@@H](COC)C(=O)Nc2cccc(C(F)(F)F)c2)c1C#N [Example 197, N~2~-[2-amino-5-cyano-6-(ethyloxy)pyrimidin-4-yl]-O-methyl-N-[3-(trifluoromethyl)phenyl]-L-serinamide]
2 | > 2000 nM | CCOc1nc(N)nc(N[C@@H](COCc2ccccc2)C(=O)Nc2cccc(C(F)(F)F)c2)c1C#N [Example 151, N~2~-[2-amino-5-cyano-6-(ethyloxy)pyrimidin-4-yl]-O-(phenylmethyl)-N-[3-(trifluoromethyl)phenyl]-L-serinamide]
3 | > 2000 nM | CCOc1nc(N)nc(N[C@@H](CCC(=O)OCc2ccccc2)C(=O)Nc2cccc(C(F)(F)F)c2)c1C#N [Example 165, phenylmethyl N~2~-[2-amino-5-cyano-6-(ethyloxy)pyrimidin-4-yl]-N-[3-(trifluoromethyl)phenyl]-L-apha-glutaminate]
4 | > 2000 nM | CSc1nc(N)nc(NCCC[C@H](N)C(=O)Nc2cccc(C(F)(F)F)c2)c1C#N [Example 155, N~5~-[2-amino-5-cyano-6-(methylthio)pyrimidin-4-yl]-N-[3-(trifluoromethyl)phenyl]-L-ornithinamide]
5 | > 2000 nM | CSc1nc(N)nc(N[C@@H](C)C(=O)Nc2cccc(C(=O)N3CCN(C)CC3)c2)c1C#N [Example 82, N^2-[2-amino-5-cyano-6-(methylthio)pyrimidin-4-yl]-N-{3-[(4-methylpiperazin-1-yl)carbonyl]phenyl}-L-alaninamide]
6 | > 2000 nM | COc1nc(N)nc(N[C@@H](C)C(=O)Nc2cc(OCCN(C)C)cc(C(F)(F)F)c2)c1C#N [Example 179, N~2~-[2-amino-5-cyano-6-(methyloxy)pyrimidin-4-yl]-N-[3-{[2-(dimethylamino)ethyl]oxy}-5-(trifluoromethyl)phenyl]-L-alaninamide]
7 | > 2000 nM | CCOc1nc(N)nc(N[C@@H](C)C(=O)Nc2cc(C(=O)NCCN3CCOCC3)cc(C(F)(F)F)c2)c1C#N [Example 159, 3-({N-[2-amino-5-cyano-6-(ethyloxy)pyrimidin-4-yl]-L-alanyl}amino)-N-(2-morpholin-4-ylethyl)-5-(trifluoromethyl)benzamide]
8 | 500 to 2000 nM | CSc1nc(N)nc(NCC(=O)Nc2cccc(C(F)(F)F)c2)c1/C=N/N [Example 58, N^2-[2-amino-5-[(E)-hydrazonomethyl]-6-(methylthio)pyrimidin-4-yl]-N-[3-(trifluoromethyl)phenyl]glycinamide]
9 | 50 to 500 nM | CNc1nc(N)nc(SCC(=O)Nc2cccc(C(F)(F)F)c2)c1C=O [Example 45, 2-{[2-amino-5-formyl-6-(methylamino)pyrimidin-4-yl]thio}-N-[3-(trifluoromethyl)phenyl]acetamide]
10 | > 2000 nM | CCOc1nc(N)nc(N[C@@H](C)C(=O)Nc2cc(C(=O)N3CCN(C)CC3)cc(C(F)(F)F)c2)c1C#N [Example 157, N~2~-[2-amino-5-cyano-6-(ethyloxy)pyrimidin-4-yl]-N-[3-[(4-methylpiperazin-1-yl)carbonyl]-5-(trifluoromethyl)phenyl]-L-alaninamide]
11 | > 2000 nM | CSc1nc(N)nc(N[C@@H](CN2CCOCC2)C(=O)Nc2cccc(C(F)(F)F)c2)c1C#N [Example 191, N~2~-[2-amino-5-cyano-6-(methylthio)pyrimidin-4-yl]-3-morpholin-4-yl-N-[3-(trifluoromethyl)phenyl]-L-alaninamide]
12 | > 2000 nM | CSc1nc(N)nc(N[C@@H](C)C(=O)Nc2cccc(N)c2)c1C#N [Example 124, N^2-[2-amino-5-cyano-6-(methylthio)pyrimidin-4-yl]-N-(3-aminophenyl)-L-alaninamide]
13 | > 2000 nM | CSc1nc(N)nc(N(C)CC(=O)Nc2cccc(C(C)C)c2)c1C#N [Example 110, N^2-[2-amino-5-cyano-6-(methylthio)pyrimidin-4-yl]-N^2-methyl-N-[3-(1-methylethyl)phenyl]glycinamide]
14 | > 2000 nM | CSc1nc(N)nc(NC(C)(C)C(=O)Nc2cccc(C(F)(F)F)c2)c1C#N [Example 81, N^2-[2-amino-5-cyano-6-(methylthio)pyrimidin-4-yl]-2-methyl-N-[3-(trifluoromethyl)phenyl]alaninamide]
15 | > 2000 nM | CCOc1nc(N)nc(N[C@@H](C)C(=O)Nc2cc(C(=O)NCCCN3CCN(C)CC3)cc(C(F)(F)F)c2)c1C#N [Example 161]
16 | > 2000 nM | CCOc1nc(N)nc(N[C@@H](CCCNC(=O)OC(C)(C)C)C(=O)Nc2cccc(C(F)(F)F)c2)c1C#N [Example 128, 1,1-dimethylethyl((4S)-4-{[2-amino-5-cyano-6-(ethyloxy)pyrimidin-4-yl]amino}-5-oxo-5-{[3-(trifluoromethyl)phenyl]amino}pentyl)carbamate]
17 | > 2000 nM | COc1nc(N)nc(N[C@@H](CCCNC(=O)OC(C)(C)C)C(=O)Nc2cccc(C(F)(F)F)c2)c1C#N [Example 185, 1,1-dimethylethyl ((4S)-4-{[2-amino-5-cyano-6-(methyloxy)pyrimidin-4-yl]amino}-5-oxo-5-{[3-(trifluoromethyl)phenyl]amino}pentyl)carbamate]

Row | IC50 | Structure (SMILES)
18 | > 2000 nM | C[C@H](Nc1nc(N)ncc1C#N)C(=O)Nc1cccc(C(F)(F)F)c1 [Example 90, N^2-(2-amino-5-cyanopyrimidin-4-yl)-N-[3-(trifluoromethyl)phenyl]-L-alaninamide]
19 | > 2000 nM | CCOc1nc(N)nc(N[C@@H](CN(C)C)C(=O)Nc2cccc(C(F)(F)F)c2)c1C#N [Example 176, N~2~-[2-amino-5-cyano-6-(ethyloxy)pyrimidin-4-yl]-3-(dimethylamino)-N-[3-(trifluoromethyl)phenyl]-L-alaninamide]
20 | > 2000 nM | CCOc1nc(N)nc(N(C)[C@@H](C)C(=O)Nc2cccc(Br)c2)c1C#N [Example 174, N~2~-[2-amino-5-cyano-6-(ethyloxy)pyrimidin-4-yl]-N-(3-bromophenyl)-N~2~-methyl-L-alaninamide]
21 | > 2000 nM | C[C@@H](C(=O)Nc1cccc(C(F)(F)F)c1)N(C)c1nc(N)nc([S+](C)[O-])c1C#N (stereo partly drawn) [Example 118, N^2-[2-amino-5-cyano-6(methylsulfinyl)pyrimidin-4-yl]-N^2-methyl-N-[3-(trifluoromethyl)phenyl]-L-alaninamide]
22 | > 2000 nM | CSc1nc(N)nc(N(CCC2CCOCC2)CC(=O)Nc2cccc(C(F)(F)F)c2)c1C#N [Example 105, N^2-[2-amino-5-cyano-6-(methylthio)pyrimidin-4-yl]-N^2-[2-(tetrahydro-2H-pyran-4-4yl)ethyl]-N-[3-(trifluoromethyl)phenyl]glycinamide]
23 | > 2000 nM | COc1nc(N)nc(N[C@@H](C)C(=O)Nc2cc(C(=O)NCCN(C)C)cc(C(F)(F)F)c2)c1C#N [Example 190, 3-({N-[2-amino-5-cyano-6-(methyloxy)pyrimidin-4-yl]-L-alanyl}amino)-N-[2-(dimethylamino)ethyl]-5-(trifluoromethyl)benzamide]
24 | > 2000 nM | CSc1nc(N)nc(N(C)NC(=O)Nc2cccc(C(F)(F)F)c2)c1C#N [Example 96, 2-[2-amino-5-cyano-6-(methylthio)pyrimidin-4-yl]-2-methyl-N-[3-(trifluoromethyl)phenyl]hydrazinecaboxamide]
25 | 50 to 500 nM | CSc1nc(NC(C)=O)nc(SCC(=O)Nc2cccc(C(F)(F)F)c2)c1C#N [Example 41, 2-{[2-(acetylamino)-5-cyano-6-(methylthio)pyrimidin-4-yl]thio}-N-[3-(trifluoromethyl)phenyl]acetamide]
26 | > 2000 nM | CCOC(=O)CN(NC(=O)Nc1cccc(C(F)(F)F)c1)c1nc(N)nc(SC)c1C#N [Example 95, ethyl[1-[2-amino-5-cyano-6-(methylthio)pyrimidin-4-yl]-2-({[3-(trifluoromethyl)phenyl]amino}carbonyl)hydrazino]acetate]
27 | 500 to 2000 nM | CSc1nc(N)nc(N[C@@H](CCC(=O)O)C(=O)Nc2cccc(C(F)(F)F)c2)c1C#N [Example 149, N~2~-[2-amino-5-cyano-6-(methylthio)pyrimidin-4-yl]-N-[3-(trifluoromethyl)phenyl]-Lalpha-glutamine]
28 | > 2000 nM | CCOc1nc(N)nc(N[C@@H](Cc2ccc(O)cc2)C(=O)Nc2cccc(C(F)(F)F)c2)c1C#N [Example 154, Nalpha-[2-amino-5-cyano-6-(ethyloxy)pyrimidin-4-yl]-N-[3-(trifluoromethyl)phenyl]-L-tyrosinamide]
29 | > 2000 nM | COc1nc(N)nc(N(C)[C@@H](C)C(=O)Nc2cccc(C(F)(F)F)c2)c1C#N [Example 119, N^2-[2-amino-5-cyano-6-(methyloxy)pyrimidin-4-yl]-N^2-methyl-N-[3-(trifluoromethyl)phenyl]-L-alaninamide]
30 | 500 to 2000 nM | CSc1nc(N)nc(N[C@@H](C)C(=O)Nc2cc(C(=O)O)cc(C(F)(F)F)c2)c1C#N [Example 145]
31 | > 2000 nM | CSc1nc(N)nc(N[C@H](C)C(=O)Nc2cccc(C(F)(F)F)c2)c1C#N [Example 83, N^2-[2-amino-5-cyano-6-(methylthio)pyrimidin-4-yl]-N-[3-(trifluoromethyl)phenyl]-D-alaninamide]
32 | > 2000 nM | CCOc1nc(N)nc(N[C@@H](CCC(=O)O)C(=O)Nc2cccc(C(F)(F)F)c2)c1C#N [Example 173, N~2~-[2-amino-5-cyano-6-(ethyloxy)pyrimidin-4-yl]-N-[3-(trifluoromethyl)phenyl]-L-alpha-glutamine]
33 | > 2000 nM | CCOc1nc(N)nc(N[C@@H](COC(C)=O)C(=O)Nc2cccc(C(F)(F)F)c2)c1C#N [Example 164, (2S)-2-{[2-amino-5-cyano-6-(ethyloxy)pyrimidin-4-yl]amino}-3-oxo-3-{[3-(trifluoromethyl)phenyl]amino}propyl acetate]
34 | > 2000 nM | CCOc1nc(N)nc(N[C@@H](CN2CCOCC2)C(=O)Nc2cccc(C(F)(F)F)c2)c1C#N [Example 193, N~2~-[2-amino-5-cyano-6-(ethyloxy)pyrimidin-4-yl]-3-morpholin-4-yl-N-[3-(trifluoromethyl)phenyl]-L-alaninamide]
